Measurements taken from patent US20130302442A1, “METHODS OF USING (4S,4AS,5AR,12AS)-4-DIMETHYLAMINO-3,10,12,12A-TETRAHYDROXY-7-[(METHOXY(METHYL)AMINO)-METHYL]-1,11-DIOXO-1,4,4A,5,5A,6,11,12A-OCTAHYDRO-NAPHTHACENE-2-CARBOXYLIC ACID AMIDE” (priority 2012, published 2013).
Converted amounts (≈) assume the structure as drawn. Like-named read-outs stand apart in the source and are kept apart here.

How the values were obtained:
S. pyogenes = assay: In vitro MIC testing, antibacterial spectrum of activity; type: cell-based
P. granulosum = assay: as above; type: cell-based; settings: P. granulosum [clinical isolates] (3 isolates)
Bifidobacterium bifidum = assay: In vitro MIC testing against anaerobic bacteria; type: cell-based; settings: ATCC15696; Bifidobacterium bifidum 3965, ATCC 15696
K. pneumoniae = assay: In vitro MIC testing, antibacterial spectrum of activity; type: cell-based; settings: Klebsiella pneumoniae
P. avidum = assay: as above; type: cell-based; settings: P. avidum [clinical isolates] (4 isolates)
Bacteroides ovatus = assay: In vitro MIC testing against anaerobic bacteria; type: cell-based
[1] = tested on: Prevotella melaninogenica; assay: In vitro MIC testing against anaerobic bacteria; type: cell-based; settings: Prevotella melaninogenica 3443, read-out: MIC
E. coli = assay: In vitro MIC testing, antibacterial spectrum of activity; type: cell-based; settings: E. coli [tetS] (7 isolates)
Eikenella corrodens = assay: In vitro MIC testing against anaerobic bacteria; type: cell-based; settings: Eikenella corrodens, ATCC43278
Lactobacillus plantarum = assay: In vitro MIC testing against anaerobic bacteria; type: cell-based; settings: Lactiplantibacillus plantarum, ATCC39268; Lactobacillus plantarum 2791, ATCC 39268
S. agalactiae = assay: In vitro MIC testing, antibacterial spectrum of activity; type: cell-based
Fusobacterium nucleatum = assay: In vitro MIC testing against anaerobic bacteria; type: cell-based; settings: ATCC25586; Fusobacterium nucleatum 3962, ATCC 25586; read-out: MIC
Bifidobacterium brevi = assay: In vitro MIC testing against anaerobic bacteria; type: cell-based; settings: ATCC15698; Bifidobacterium brevi 3967, ATCC 15698
Veillonella parvula = assay: In vitro MIC testing against anaerobic bacteria; type: cell-based; settings: ATCC17745; Veillonella parvula 1272, ATCC 17745
[2] = tested on: Bacteroides thetaiotaomicron; assay: In vitro MIC testing against anaerobic bacteria; type: cell-based
Bacteroides fragilis = assay: In vitro MIC testing against anaerobic bacteria; type: cell-based
S. epidermidis = assay: In vitro MIC testing, antibacterial spectrum of activity; type: cell-based, Staphylococcus epidermidis; settings: for MIC50 / MIC90: Staphylococcus epidermidis; for MIC50: read-out: MIC50; for MIC90: read-out: MIC90
S. haemolyticus = assay: as above; type: cell-based; settings: S. haemolyticus (33 isolates)
Clostridium perfringens = assay: microbe, parasite or virus in culture; type: cell-based
[3] = tested on: Streptococcus spp. [Group C]; assay: In vitro MIC testing, antibacterial spectrum of activity; type: cell-based; settings: Streptococcus spp. [Group C] (30 isolates); read-out: MIC50
[4] = tested on: Streptococcus intermedius; assay: In vitro MIC testing against anaerobic bacteria; type: cell-based; settings: ATCC27335; Streptococcus intermedius 1203, ATCC 27335
S. pneumoniae = assay: In vitro MIC testing, antibacterial spectrum of activity; type: cell-based, Streptococcus pneumoniae
Prevotella spp. = assay: In vitro MIC testing against anaerobic bacteria; type: cell-based
Lactobacillus casei = assay: In vitro MIC testing against anaerobic bacteria; type: cell-based; settings: Lacticaseibacillus casei, ATCC393; Lactobacillus casei 1722, ATCC 393
P. aeruginosa = assay: In vitro MIC testing, antibacterial spectrum of activity; type: cell-based; settings: Pseudomonas aeruginosa; P. aeruginosa (11 isolates)
Bifidobacterium longum = assay: In vitro MIC testing against anaerobic bacteria; type: cell-based; settings: ATCC15707; Bifidobacterium longum 3968, ATCC 15707
[5] = tested on: Porphyromonas asaccharolytica; assay: In vitro MIC testing against anaerobic bacteria; type: cell-based
Bacteroides vulgatus = assay: In vitro MIC testing against anaerobic bacteria; type: cell-based
Propionibacterium acnes = assay: In vitro MIC testing against anaerobic bacteria; type: cell-based; settings: Cutibacterium acnes, read-out: MIC
E. faecalis = assay: In vitro MIC testing, antibacterial spectrum of activity; type: cell-based
[6] = tested on: Fusobacterium necrophorum; assay: In vitro MIC testing against anaerobic bacteria; type: cell-based; settings: ATCC25286; Fusobacterium necrophorum 3963, ATCC 25286; read-out: MIC
P. mirabilis = assay: In vitro MIC testing, antibacterial spectrum of activity; type: cell-based; settings: Proteus mirabilis; P. mirabilis (30 isolates)
Clostridium difficile = assay: In vitro MIC testing against anaerobic bacteria; type: cell-based
[7] = S. epidermidis [MRSE] (32 isolates)
[8] = S. epidermidis [MSSE] (31 isolates)

Question: What does the source list for `CN(C)c1ccc(O)c2c1C[C@H]1C[C@H]3[C@H](N(C)C)C(O)=C(C(N)=O)C(=O)[C@@]3(O)C(O)=C1C2=O` [Minocycline, minocycline]?
Answer: MIC Range (S. pyogenes; S. pyogenes [tetS] (5 isolates)): 0.25 to 0.5 µg/mL; MIC (S. pyogenes; Streptococcus pyogenes, S. pyogenes strain PBS # 330, tetO): 8 µg/mL (≈ 17.5 µM); MIC50 (S. pyogenes; Streptococcus pyogenes, S. pyogenes (32 isolates), read-out: MIC50): 0.06 µg/mL (≈ 0.131 µM); MIC Range (P. granulosum): 0.25 to 0.5 µg/mL; MIC (Bifidobacterium bifidum): 0.25 µg/mL (≈ 0.546 µM); MIC50 (K. pneumoniae; K. pneumoniae (31 isolates)): 4 µg/mL (≈ 8.74 µM); MIC90 (K. pneumoniae; K. pneumoniae (31 isolates)): > 32 µg/mL; MIC (K. pneumoniae; K. pneumoniae strain PBS # 266, tetD): 64 µg/mL (≈ 140 µM); MIC Range (P. avidum): 0.25 to 2 µg/mL; MIC (Bacteroides ovatus; Bacteroides ovatus 3503, read-out: MIC): 4 µg/mL (≈ 8.74 µM); MIC (Bacteroides ovatus; Bacteroides ovatus 3508, read-out: MIC): 0.03 µg/mL (≈ 0.0656 µM); MIC [1]: 1 µg/mL (≈ 2.19 µM); MIC Range (E. coli): 0.5 to 4 µg/mL; MIC (Eikenella corrodens): 0.03 µg/mL (≈ 0.0656 µM); MIC (Lactobacillus plantarum): 0.5 µg/mL (≈ 1.09 µM); MIC Range (S. agalactiae; S. agalactiae [tetS] (3 isolates)): 0.5-0.5 μg/mL; MIC50 (S. agalactiae; Streptococcus agalactiae, S. agalactiae (31 isolates), read-out: MIC50): 16 µg/mL (≈ 35 µM); MIC90 (S. agalactiae; Streptococcus agalactiae, S. agalactiae (31 isolates), read-out: MIC90): 16 µg/mL (≈ 35 µM); MIC (Fusobacterium nucleatum): 0.06 µg/mL (≈ 0.131 µM); MIC (Bifidobacterium brevi): 0.25 µg/mL (≈ 0.546 µM); MIC (Veillonella parvula): 0.5 µg/mL (≈ 1.09 µM); MIC ([2]; Bacteroides thetaiotaomicron 3399): 0.03 µg/mL (≈ 0.0656 µM); MIC ([2]; Bacteroides thetaiotaomicron 3496): 8 µg/mL (≈ 17.5 µM); MIC (Bacteroides fragilis; Bacteroides fragilis 3374, read-out: MIC): 0.03 µg/mL (≈ 0.0656 µM); MIC (Bacteroides fragilis; Bacteroides fragilis 3479, read-out: MIC): 8 µg/mL (≈ 17.5 µM); MIC Range (S. epidermidis; [7]): 0.06 to 0.5 µg/mL; MIC Range (S. epidermidis; [8]): 0.06 to 0.25 µg/mL; MIC50 (S. epidermidis; [7]): 0.12 µg/mL (≈ 0.262 µM); MIC90 (S. epidermidis; [7]): 0.25 µg/mL (≈ 0.546 µM); MIC50 (S. epidermidis; [8]): 0.06 µg/mL (≈ 0.131 µM); MIC90 (S. epidermidis; [8]): 0.25 µg/mL (≈ 0.546 µM); MIC Range (S. haemolyticus): ≦0.03-0.5 μg/mL; MIC50 (S. haemolyticus; Staphylococcus haemolyticus, read-out: MIC50): 0.06 µg/mL (≈ 0.131 µM); MIC90 (S. haemolyticus; Staphylococcus haemolyticus, read-out: MIC90): 0.5 µg/mL (≈ 1.09 µM); MIC (Clostridium perfringens): 8 µg/mL (≈ 17.5 µM); MIC50 [3]: 0.06 µg/mL (≈ 0.131 µM); MIC [4]: 0.25 µg/mL (≈ 0.546 µM); MIC Range (S. pneumoniae; S. pneumoniae [tetS] (5 isolates)): 0.25-0.25 μg/mL; MIC50 (S. pneumoniae; Streptococcus pneumoniae, S. pneumoniae [PSSP] (32 isolates), read-out: MIC50): 0.06 µg/mL (≈ 0.131 µM); MIC90 (S. pneumoniae; Streptococcus pneumoniae, S. pneumoniae [PSSP] (32 isolates), read-out: MIC90): 0.12 µg/mL (≈ 0.262 µM); MIC (Prevotella spp.; Prevotella spp. 3564): 0.25 µg/mL (≈ 0.546 µM); MIC (Prevotella spp.; Prevotella spp. 3568): 0.25 µg/mL (≈ 0.546 µM); MIC (Lactobacillus casei): 0.5 µg/mL (≈ 1.09 µM); MIC50 (P. aeruginosa): > 32 µg/mL; MIC90 (P. aeruginosa): > 32 µg/mL; MIC (Bifidobacterium longum): 1 µg/mL (≈ 2.19 µM); MIC ([5]; Porphyromonas asaccharolytica 3552, read-out: MIC): 8 µg/mL (≈ 17.5 µM); MIC ([5]; Porphyromonas asaccharolytica 3557, read-out: MIC): 4 µg/mL (≈ 8.74 µM); MIC (Bacteroides vulgatus; Bacteroides vulgatus 3494): 8 µg/mL (≈ 17.5 µM); MIC (Bacteroides vulgatus; Phocaeicola vulgatus, Bacteroides vulgatus 3389, read-out: MIC): 8 µg/mL (≈ 17.5 µM); MIC (Propionibacterium acnes; ATCC11829, Propionibacterium acnes 1286, ATCC 11829): 0.5 µg/mL (≈ 1.09 µM); MIC (Propionibacterium acnes; Propionibacterium acnes 1713): 0.06 µg/mL (≈ 0.131 µM); MIC Range (E. faecalis; E. faecalis [tetS] (4 isolates)): 0.25 to 0.5 µg/mL; MIC50 (E. faecalis; Enterococcus faecalis, E. faecalis [VSE] (31 isolates), read-out: MIC50): 8 µg/mL (≈ 17.5 µM); MIC90 (E. faecalis; Enterococcus faecalis, E. faecalis [VSE] (31 isolates), read-out: MIC90): 16 µg/mL (≈ 35 µM); MIC [6]: 0.06 µg/mL (≈ 0.131 µM); MIC50 (P. mirabilis): 16 µg/mL (≈ 35 µM); MIC90 (P. mirabilis): > 32 µg/mL; MIC (Clostridium difficile; Clostridioides difficile): 0.03 µg/mL (≈ 0.0656 µM); MIC (Clostridium difficile; Clostridium difficile 3584): 0.03 µg/mL (≈ 0.0656 µM)
